Results on seven compounds are retold here after US12662489B2 (Sitryx Therapeutics Limited, priority 2023, dated 2026).

Assay [1] has as its target T1, MTHFD2 recombinant human enzyme (Homo sapiens, UniProt P13995).
T1 sequence (P13995 36-350): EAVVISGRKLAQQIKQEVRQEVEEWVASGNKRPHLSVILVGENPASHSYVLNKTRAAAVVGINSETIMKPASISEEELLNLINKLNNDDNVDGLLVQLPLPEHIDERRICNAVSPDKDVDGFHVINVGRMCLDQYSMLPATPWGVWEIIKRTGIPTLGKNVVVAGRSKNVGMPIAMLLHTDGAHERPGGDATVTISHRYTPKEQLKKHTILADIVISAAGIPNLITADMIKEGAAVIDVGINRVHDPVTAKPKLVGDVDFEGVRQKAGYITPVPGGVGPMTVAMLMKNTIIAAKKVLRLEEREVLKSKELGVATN
Put plainly: MTHFD2 inhibition assay (NAD(P)H-Glo luminescence). The settings on record: for MTHFD1/MTHFD2 IC50 ratio: selectivity of MTHFD2 inhibition over MTHFD1, band.

In assay [2] the target is T2, MTHFD1 recombinant human enzyme (Homo sapiens, UniProt P11586).
T2 sequence (P11586 2-291 limits assumed): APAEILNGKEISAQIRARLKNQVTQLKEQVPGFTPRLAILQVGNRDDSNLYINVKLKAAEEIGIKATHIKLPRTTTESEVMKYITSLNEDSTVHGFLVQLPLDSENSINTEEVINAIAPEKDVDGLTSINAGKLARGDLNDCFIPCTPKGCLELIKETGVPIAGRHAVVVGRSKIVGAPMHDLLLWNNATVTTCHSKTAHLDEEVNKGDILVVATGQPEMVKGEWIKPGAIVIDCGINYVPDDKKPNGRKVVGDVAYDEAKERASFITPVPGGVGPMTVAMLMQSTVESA
Kind of assay: MTHFD1 inhibition assay (NAD(P)H-Glo luminescence). The settings on record: MTHFD1 IC50, recombinant human enzyme 200 nM, NADP, band.

What is called pIC50 is the negative decadic logarithm of the IC50, by convention in mol/L.

Structures are written as SMILES. pIC50: −log10 of the molar value.

In the case of `COC[C@H]1CN(c2cc(C)c3c4c(c(=O)oc3c2C)CN(C(=O)c2cc(OC3CCCC3)c(C(=O)NS(=O)(=O)N(C)C)c(N3CCCC3)c2)CC4)CCN1C` [Example 127, (R)-2-(cyclopentyloxy)-N-(N,N-dimethylsulfamoyl)-4-(8-(3-(methoxymethyl)-4-methylpiperazin-1-yl)-7,10-dimethyl-5-oxo-1,3,4,5-tetrahydro-2H-chromeno[3,4-c]pyridine-3-carbonyl)-6-(pyrrolidin-1-yl)benzamide], in assay [1], the pIC50 was 7.00 to 8.00 and the “MTHFD1/MTHFD2 IC50 ratio” value is reported as “H (>9.0 to 30)”. In addition, the pIC50 in assay [2] was 6.00 to 7.00.
Consider `CCOc1c(C(=O)NS(=O)(=O)N2CC3CC3C2)ccc(C(=O)N2CCc3c(c(=O)oc4c(C)c(N5CCN(C)[C@@H](COC)C5)cc(C)c34)C2)c1F` (stereo partly drawn) [Example 229], for which, in assay [1], the pIC50 is 7.00 to 8.00 and the “MTHFD1/MTHFD2 IC50 ratio” value was “G (^ 3 to 9.0)”. The pIC50 in assay [2] was 7.00 to 8.00.
As to `COC[C@H]1CN(c2cc(Cl)c3c4c(c(=O)oc3c2C)CN(C(=O)c2cc(N(C)C)c(C(=O)NS(=O)(=O)N3CC[C@H](OC)C3)cc2F)CC4)CCN1C` [Example 284, 4-(10-chloro-8-((R)-3-(methoxymethyl)-4-methylpiperazin-1-yl)-7-methyl-5-oxo-1,3,4,5-tetrahydro-2H-chromeno[3,4-c]pyridine-3-carbonyl)-2-(dimethylamino)-5-fluoro-N-(((S)-3-methoxypyrrolidin-1-yl)sulfonyl)benzamide], the pIC50 in assay [1] is 7.00 to 8.00; in assay [2], 6.00 to 7.00. Besides, the “MTHFD1/MTHFD2 IC50 ratio” value in assay [1] was “H (>9.0 to 30)”.
As to `COC[C@H]1CN(c2ccc3c4c(c(=O)oc3c2Cl)CN(C(=O)c2ccc(C(=O)NS(=O)(=O)N(C)C)c(O[C@@H]3C[C@@H]5C[C@@H]5C3)c2F)CC4)CCN1C` [Example 61, 2-(((1R,3r,5S)-bicyclo[3.1.0]hexan-3-yl)oxy)-4-(7-chloro-8-((R)-3-(methoxymethyl)-4-methylpiperazin-1-yl)-5-oxo-1,3,4,5-tetrahydro-2H-chromeno[3,4-c]pyridine-3-carbonyl)-N-(N,N-dimethylsulfamoyl)-3-fluorobenzamide], in assay [1], the pIC50 is 8.00 to 9.00 and the “MTHFD1/MTHFD2 IC50 ratio” value is “F (<3)”. Moreover, in assay [2], the pIC50 is 8.00 to 9.00.
Take `CCOc1cc(C(=O)N2CCc3c(c(=O)oc4c(C)c(N5CCN(C)[C@@H](COC)C5)cc(Cl)c34)C2)c(F)cc1C(=O)NS(=O)(=O)N(C)C1CC1` [Example 298, (R)-4-(10-chloro-8-(3-(methoxymethyl)-4-methylpiperazin-1-yl)-7-methyl-5-oxo-1,3,4,5-tetrahydro-2H-chromeno[3,4-c]pyridine-3-carbonyl)-N-(N-cyclopropyl-N-methylsulfamoyl)-2-ethoxy-5-fluorobenzamide]: the values for the pIC50 in assay [1] and in assay [2] were 7.00 to 8.00 and 6.00 to 7.00, respectively. For the same compound, the “MTHFD1/MTHFD2 IC50 ratio” value in assay [1] was “G (^ 3 to 9.0)”.
On to `COC[C@H]1CN(c2cc(C)c3c4c(c(=O)oc3c2C)CN(C(=O)c2ccc(C(=O)NS(=O)(=O)C3(C)CC3)c(N3CCC(C)(C)C3)c2)CC4)CCN1C` [Example 87, (R)-2-(3,3-dimethylpyrrolidin-1-yl)-4-(8-(3-(methoxymethyl)-4-methylpiperazin-1-yl)-7,10-dimethyl-5-oxo-1,3,4,5-tetrahydro-2H-chromeno[3,4-c]pyridine-3-carbonyl)-N-((1-methylcyclopropyl)sulfonyl)benzamide], for which, in assay [1], the negative-log IC50 (pIC50) is 8.00 to 9.00 and the “MTHFD1/MTHFD2 IC50 ratio” value is “G (^ 3 to 9.0)”. Moreover, the pIC50 in assay [2] is 7.00 to 8.00.
As for `COC[C@H]1CN(c2cc(C)c3c4c(c(=O)oc3c2C)CN(C(=O)c2ccc(C(=O)NS(=O)(=O)N3CCCC3)c(N3CCC(F)(F)C3)c2)CC4)CCN1C` [Example 92, (R)-2-(3,3-difluoropyrrolidin-1-yl)-4-(8-(3-(methoxymethyl)-4-methylpiperazin-1-yl)-7,10-dimethyl-5-oxo-1,3,4,5-tetrahydro-2H-chromeno[3,4-c]pyridine-3-carbonyl)-N-(pyrrolidin-1-ylsulfonyl)benzamide], in assay [1], the negative-log IC50 (pIC50) is 8.00 to 9.00 and the “MTHFD1/MTHFD2 IC50 ratio” value is reported as “H (>9.0 to 30)”. Further, the pIC50 in assay [2] is 7.00 to 8.00.
